Reference: a melting point compilation (Tetko et al.; mined from patent text by program, amines drawn as free bases though some values may be those of a salt)

For CCC(O)(c1ccccc1)c1ccc(C(=O)O)cc1 (stereo not drawn), the melting point was 128 to 130 °C. For Cc1cccc2c1nc(COc1ccc(Cl)cc1)n2CCC(C)CN(C)C (racemic), the melting point was 80 to 82 °C. For N=C(N)NCCCOc1ccc2c(c1)NC(=O)C(CCC(=O)O)C2 (stereo not drawn), the melting point was 157 to 159 °C. COc1ccccc1-n1c(=O)[nH]c2c(C(N)=O)nc(-c3cccc(C(=O)O)c3)nc21 showed a melting point of 348 to 350 °C. Compound Cc1ccc(C(=O)COc2cc(C)cc(C)c2C)nc1 has a melting point of 94 to 95 °C. For COc1nc(C(Br)Br)c([N+](=O)[O-])cc1C, the melting point was 58.7 to 61.2 °C. Compound CCn1c(N)c(C(=O)NC)c(=O)c2ccc(C#CC(C)(C)OCC(N)=O)nc21 has a melting point of 204 °C. Compound CC1(C)CNC(=O)c2c1ccc1nc(Nc3c(Cl)cccc3Cl)[nH]c21 has a melting point of 287 to 290 °C. CC(C)(C)COc1ccc(NC(=O)c2cnn(CC(F)(F)F)c2)cc1C#N gave a melting point of 159 to 160 °C. NC(=O)Cc1cc(Oc2ccc3c(ccn3C(=O)Nc3ccc(N4CCNCC4)c(C(F)(F)F)c3)c2)ncn1 gave a melting point of 149 to 152 °C. Work on C#CCOc1c(-c2ccccc2)c(=O)[nH]c2cc(Cl)ccc12 yielded a melting point of 183 to 185 °C. COC(=O)CCC1CCCCCCCCCCC1=O (stereo not drawn) showed a melting point of 33 to 35 °C. CCOC(=O)CC(O)CP(=O)(OCC)OCC (stereo not drawn) gave a melting point of 33 to 35 °C. Cc1oc(-c2ccccc2)nc1COc1ccc(COc2ncccc2CO)cc1 gave a melting point of 139 to 140 °C. In the case of CCOC(=O)CSc1nc(Cl)cc(Nc2ccc(F)cc2)n1, the melting point is reported as 97 to 102 °C. In the case of CCOCc1nc2c(N)nc3c(c2n1CCCCS(=O)(=O)N(C)C)CCCC3, the melting point is reported as 165 to 167 °C. For O=[N+]([O-])c1ccc(NCCCn2ccnc2)cc1, the melting point was 130 to 132 °C. COC[C@@H](NS(=O)(=O)c1ccc2c(Cl)cnc(Cl)c2c1)C(=O)OC(C)(C)C showed a melting point of 135 to 137 °C. For CN1CCN(c2cncc(Cl)n2)CC1=O, the melting point was 122 to 123 °C. Compound CN(C(=O)c1ccc2nonc2c1)C1CC=C(F)CC1 (stereo not drawn) has a melting point of 117 to 118 °C. With CCOc1ccccc1C=C1CCc2c1nc1ccc(C(=O)O)cn1c2=O the melting point was 328 to 332 °C. With CCOC(=O)c1cn2cccc(C(=O)OCC)c2n1 the melting point was 97 °C. In the case of S=C(Nc1ccccc1)N1CCN(c2nc3cccccc-3n2)CC1, the melting point is reported as 267 to 269 °C. C=Cc1ccc2c(c1CCC(=O)OC)CCC(NS(=O)(=O)c1ccc(Cl)cc1)C2 (stereo not drawn) gave a melting point of 138 °C. Compound COC(=O)C(C)(C)Cc1c(SC(C)(C)C)c2cc(OCc3ccc4cnccc4n3)ccc2n1Cc1ccc(Cl)cc1 has a melting point of 152 to 155 °C. For N#Cc1c2ccccc2c(-c2cc(Br)c(O)c(Br)c2)c2c1sc1ccccc12, the melting point was 321 to 323 °C. With CCOCCN(c1cccc2cc(C(N)=O)[nH]c12)S(=O)(=O)c1cccs1 the melting point was 135 °C. CCNC(=S)n1nc(Oc2c(Cl)cc(C(F)(F)F)cc2Cl)cc1C gave a melting point of 94 to 96 °C. With CC(C)OC1CC(O)C(=O)N1S(=O)(=O)c1ccccc1 (stereo not drawn) the melting point was 127 to 129 °C. In the case of COC(=O)C1=C(C(OC)OC)NC(C)=C(C(=O)OCC(C)(C)C)C1c1ccccc1C#N (stereo not drawn), the melting point is reported as 130 to 131 °C. In the case of COc1cc(F)c(C)cc1N, the melting point is reported as 108 to 110 °C. Compound COc1ccc(CCN2C=CC=C3C2=Nc2cc(OC)ccc2S(=O)(=O)N3C)cc1 has a melting point of 65 to 68 °C. Cc1c(C)c2ccc(OCCCCN3CCN(c4cccc(Cl)c4Cl)CC3)nc2[nH]c1=O showed a melting point of 161 to 163 °C. For COC(=O)C1=C(C)NC(C)=C(C(=O)OCC2CCCO2)C1c1cccc(NC(C)=O)c1 (stereo not drawn), the melting point was 158 to 160 °C. CCCCCCCCC#Cc1c(F)ccc(C(=O)O)c1F gave a melting point of 117 °C. In the case of Cc1c(C=O)cc2c(c1C)OCC2, the melting point is reported as 60 °C. Cn1c(CO)nc2ccc(-c3ccccc3)nc21 showed a melting point of 174 to 177 °C. For Nc1nc2ccc(Sc3ccccc3)cc2s1, the melting point was 180 to 182 °C. In the case of CCOC1CN2CCC1CC2 (stereo not drawn), the melting point is reported as 96 to 98 °C. Compound CCc1cc(C#N)c(OC)nc1C has a melting point of 59 to 61 °C. Cc1ccc(-n2c(=O)n(OCc3ccccc3)c(=O)c3cc(F)c(Cl)nc32)cc1 gave a melting point of 218 to 219 °C. Work on CN1c2cscc2C(=O)N(Cc2ccccc2)c2ccccc21 yielded a melting point of 137 to 138 °C. In the case of COc1cc(C(=O)c2c(C)c(OCCO)c3ccccn23)ccc1[N+](=O)[O-], the melting point is reported as 142 °C. COc1cccc(S(=O)(=O)N2c3cc(F)ccc3-c3ccc(F)cc3C2C)c1 (stereo not drawn) gave a melting point of 147 to 149 °C. With OCCN1CCC(=C2c3ccccc3Sc3ccc(Cl)cc32)CC1 the melting point was 178 to 180 °C. CC(=O)NCC=C(c1ccc(-c2ccccc2)cc1)c1ccc(-c2ccccc2)cc1 showed a melting point of 246 to 249 °C. For c1ccc(C2NCCc3ccccc32)nc1 (racemic), the melting point was 124 °C. Work on CCc1nc2ccccc2c(=O)n1CCCOc1ccc(SC(C)(C)C(=O)O)cc1 yielded a melting point of 156 to 158 °C. OC(CCl)(c1ccccc1)c1ccccc1 showed a melting point of 56 to 57 °C. For COP(=O)(Cc1c(Cl)c(Cl)c(CP(=O)(OC)OC)c(Cl)c1Cl)OC, the melting point was 179 to 181 °C. Work on CC(=O)N1CC(C)(C)c2cc3nc(-c4ccccc4)[nH]c3cc21 yielded a melting point of 225 to 227 °C. With CC1C(=O)N(Cc2ccccc2)C(=S)N1c1ccc(Oc2ccccc2)cc1 (stereo not drawn) the melting point was 62 °C. With Cc1ccccc1CC(C)(C)NC(C)(O)c1ccc(O)c(O)c1C (stereo not drawn) the melting point was 166 to 169 °C. Work on Cc1c(C)c(O)c([Si](C)(C)C)c(C#C[Si](C)(C)C)c1O yielded a melting point of 76 to 77 °C. Work on O=C1C=CC2(C=C1)N=C(N1CCN(Cc3ccccc3)CC1)C=C2c1ccccc1 yielded a melting point of 190 °C. In the case of Cc1nc(-n2ccc(Oc3ccccc3)cc2=O)sc1C(=O)NCc1ccccc1, the melting point is reported as 67 to 70 °C. Compound Cc1cc2oc(C(=O)O)cc(=O)c2c(C)c1Cl has a melting point of 289 to 290 °C. COc1cc(NP(=O)(OC)OC)ccc1NC(=O)OCc1ccccc1 gave a melting point of 115 °C. For Oc1ccc2[nH]cc(CCN3CCC(O)(c4ccccc4)CC3)c2c1, the melting point was 150 °C. Work on O=C(O)c1cc(-c2ccc(OCc3ccccc3)cc2)nn1Cc1ccccc1 yielded a melting point of 207 to 208 °C. In the case of CNC(=O)Oc1ccccc1Cl, the melting point is reported as 90 to 91 °C. Compound Nc1nc(NCCNc2ccccc2)nc(-c2cc(Cl)ccc2Cl)n1 has a melting point of 139 to 141 °C. NC(=O)C1CN(Cc2ccccc2)CC1O (stereo not drawn) showed a melting point of 128 °C. CN1C(=O)CN=C(c2ccccc2F)c2cc(C#N)ccc21 gave a melting point of 177 °C. Compound O=[N+]([O-])c1ccc2[nH]cc(CCCO)c2c1 has a melting point of 107 to 110 °C. In the case of Cc1cccc2sc(S)nc12, the melting point is reported as 161 to 173 °C. For CCCCOCCOc1ccc(-c2ccc3c(c2)C=C(C(=O)Nc2ccc(C(O)c4ccccn4)c(OC)c2)CCN3C(=O)C(F)(F)F)cc1 (stereo not drawn), the melting point was 123 to 125 °C. For O=C(CNC(=O)c1ccccc1)c1ccsc1, the melting point was 118 to 119 °C. Compound COC(=O)C(=O)c1nsc(NC(=O)OCc2ccccc2)n1 has a melting point of 144 to 147 °C. Compound Cc1cc(C)n(-c2ccc(OC=C3C=CC=CC3n3nnn(C)c3=O)c(Cl)c2)n1 (stereo not drawn) has a melting point of 122 to 124 °C. With COc1cc(-c2nc3ccc(OCCCN(C)C)cc3n2Cc2ccccc2)cc(OC)c1OC the melting point was 112 °C. With CC(C)c1ccc(N(Cc2ccc(N(C)C)cc2)C(=S)C2CCCc3ccccc32)cc1 (stereo not drawn) the melting point was 123 to 125 °C. Compound Nc1c(Cl)cc(C(O)CNCCCCCCOCCCCCCc2ncccn2)cc1Cl (stereo not drawn) has a melting point of 55 to 57 °C. CC(C)(C)Sc1ccc(CC=CN(O)C(N)=O)s1 gave a melting point of 111 to 113 °C. With COc1ccc2c(-c3ccc(OC(C)=O)cc3)c(-c3ccc(C(F)(F)F)cc3)c(=O)oc2c1 the melting point was 198 to 201 °C. With CCN(CC)S(=O)(=O)c1cc(Cl)c(Cl)c(Cl)c1SCSC#N the melting point was 83 to 85 °C. For CCCCCCCCCCCCNC(=O)c1cc(Br)c(OCCn2cnnn2)c(-c2cccc(OC)c2)c1, the melting point was 100 to 101 °C. With CC(=O)c1c(SSc2c(C(C)=O)c3ccccc3n2C)n(C)c2ccccc12 the melting point was 178 to 180 °C. Work on O=C(NCCNC(=O)C1CCN(c2c(Cl)cncc2Cl)CC1)c1ccccc1 yielded a melting point of 209 to 211 °C. In the case of CCCCc1nc2cc3ccccc3cc2[nH]1, the melting point is reported as 190 °C. Cc1ccccc1CC1CCN(C(=O)C(=O)Nc2ccc3c(c2)CC(=O)N3)CC1 showed a melting point of 211 to 213 °C. For CC(C)SC(=O)N1CCN(c2ccc3ncc(Br)n3n2)CC1, the melting point was 186 to 187 °C. Work on O=C(Nc1n[nH]c2cc(Cl)ccc12)c1cc(Cl)cc(Cl)c1 yielded a melting point of 240 °C. Work on CC(=O)c1ccc(N2CCN(c3ccncc3)CC2)cc1 yielded a melting point of 176 to 177 °C. In the case of COc1ccc2c(c1)[nH]c1cc(OC)ccc12, the melting point is reported as 273 to 274 °C. N#Cc1cc(N)ccc1N1CCC(OC(=O)c2ccccc2)CC1 showed a melting point of 154 to 155 °C. With COC(=O)CNC(=O)C1CSSC1 the melting point was 73 to 75 °C. CCc1n[nH]c(CC)c1CCCCCCOc1ccc(OC)cc1Cl showed a melting point of 91 to 93 °C. COC(OC)c1ccc(C=C2C(=O)C3(C)CCC2C3(C)C)cc1 (stereo not drawn) gave a melting point of 98 °C. With CCOC(=O)c1cnn(-c2ccccc2)c1Br the melting point was 86 to 89 °C. Work on Cc1ccc2c(=O)c3cc(F)ccc3sc2c1 yielded a melting point of 166 to 170 °C. CCOC(=O)Cn1ncc(-c2ccccc2)c1-c1ccc(O)cc1 showed a melting point of 130 to 135 °C. For CCOC(=O)C(=O)Nc1c([N+](=O)[O-])cc(Br)c2c1CN(C)C2, the melting point was 153 to 154 °C. COC(=O)CCCc1cc2nc(C(F)(F)F)ccc2n1S(=O)(=O)c1cccc(OC(F)(F)F)c1 gave a melting point of 72 °C. Work on N#Cc1ccc(S(=O)(=O)N2CCCC2c2ccc(F)cc2)cc1 (racemic) yielded a melting point of 147 °C. Work on Cn1cc(-c2cccc(O)c2)c(=O)c(C2CCCCC2)c1 yielded a melting point of 155 to 165 °C. With Nc1cc(Cl)c(OCc2ccccc2-c2ccccc2)c(Cl)c1 the melting point was 67 to 69 °C. Work on O=C(Nc1cccnc1)N1CCc2ccc(Cl)cc21 yielded a melting point of 204 to 205 °C. For Nc1ccc(Oc2ccc(P(=O)(c3ccccc3)c3ccccc3)c(Oc3ccc(N)cc3)c2)cc1, the melting point was 272 to 275 °C. For CC(C)(C)OC(=O)Cn1c(C(=O)O)cc2ccccc21, the melting point was 156 to 157 °C. Cc1c(Cc2cc(=O)n(-c3cccc(C(F)(F)F)c3)[nH]2)c2cc(Cl)ccc2n1C(=O)c1ccc(Cl)cc1 showed a melting point of 81 to 83 °C. In the case of CCOC(=O)c1cc(OC)c2c(OC(C)C)ccc(Br)c2c1, the melting point is reported as 62 °C. Work on CCN(CC)CCn1cc2c(c1)-c1ccc(Cl)cc1C(c1ccccc1Cl)=NC2 yielded a melting point of 130 to 131 °C.
